From patent US20230077362A1 (CORTEVA AGRISCIENCE LLC, priority 2019, published 2023) come the findings set out here.

Common to all, as to format: in vivo
The test system of assay [1] is Beet Armyworm (Spodoptera exigua) ("BAW"), second instar larvae. In words: Bioassay on beet armyworm (BAW), 128-well diet tray assay. To be noted: Spodoptera exigua. The procedure, abridged:
(§1)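 Mortality (%) is scored well by well after five to seven days at 25° C. on a 14:10 light:dark regime. The value given is the mean of eight wells.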

Assay [2] relates to Cabbage Looper (Trichoplusia ni) ("CL"), second instar larvae. As to the kind of experiment: Bioassay on cabbage looper (CL), 128-well diet tray assay. Conditions: Trichoplusia ni. The procedure, abridged: as §1
For assay [3], the system named is Green Peach Aphid ("GPA") (Myzus persicae), wingless adult and nymph stages. As to the kind of experiment: Bioassay on green peach aphid (GPA), foliar spray on infested cabbage seedlings. Conditions: Myzus persicae, foliar, 72 h. The procedure, abridged:
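Values are corrected % control, 100*(X−Y)/X, from live aphid counts per plant under a microscope, treated versus solvent-check plants. Four infested seedlings (20-50 GPA each) per treatment were sprayed to runoff and kept three days near 25° C at ambient RH.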

Where [4] appears, read: read-out: BAW (Biological Results, rating).
Setting [5] is: read-out: CL (Biological Results, rating).
Where [6] appears, read: read-out: GPA (Biological Results, rating).

SMILES strings stand for the structures. Where two headings read alike, the source gives them in different places.

For `Cc1cc(-c2ncn(-c3ccc(S(=O)(=O)C(F)(F)F)cc3)n2)ccc1NC(=O)/N=C1\SCC(=O)N1c1cc(N(C)C)ccc1C(C)C` [Compound J366, (Z)-1-(3-(5-(Dimethylamino)-2-isopropylphenyl)-4-oxothiazolidin-2-ylidene)-3-(2-methyl-4-(1-(4-((trifluoromethyl)sulfonyl)phenyl)-1H-1,2,4-triazol-3-yl)phenyl)urea], the pest or weed control at 50 µg/cm2 in assay [1] (read-out: BAW rating) and in assay [2] (read-out: CL rating) was 50 to 100% throughout. The pest or weed control at 200 µg/mL in assay [3] (read-out: GPA rating) was in the range of 0 to 80%.
As for `Cc1cc(-c2ncn(-c3cccc(OC(F)(F)F)c3)n2)ccc1NC(=O)/N=C1\SCC(=O)N1c1cc(N(C)C)ccc1C(C)C` [Compound J137, (Z)-1-(3-(5-(Dimethylamino)-2-isopropylphenyl)-4-oxothiazolidin-2-ylidene)-3-(2-methyl-4-(1-(3-(trifluoromethoxy)phenyl)-1H-1,2,4-triazol-3-yl)phenyl)urea], the pest or weed control at 50 µg/cm2 in assay [1] (setting [4]) and in assay [2] (setting [5]) was 50 to 100% throughout. In assay [3] (setting [6]), the pest or weed control at 200 µg/mL was in the range of 0 to 80%.
For the molecule `COC(c1ccc(C)cc1N1C(=O)CS/C1=N\C(=O)Nc1ccc(-c2cn(-c3ccc(S(=O)(=O)C(F)(F)F)cc3)cn2)cc1F)C(F)(F)F` (stereo not drawn) [Compound J649, (Z)-1-(2-Fluoro-4-(1-(4-((trifluoromethyl)sulfonyl)phenyl)-1H-imidazol-4-yl)phenyl)-3-(3-(5-methyl-2-(2,2,2-trifluoro-1-methoxyethyl)phenyl)-4-oxothiazolidin-2-ylidene)urea], the pest or weed control at 50 µg/cm2 in assay [1] (read-out: BAW rating) and in assay [2] (read-out: CL rating) was 50 to 100% each time. In assay [3] (read-out: GPA rating), the pest or weed control at 200 µg/mL was in the range of 0 to 80%.
As to `Cc1ccc(OCC(F)(F)F)c(N2C(=O)CS/C2=N\C(=O)Nc2ccc(-c3ncn(-c4cccc(C(F)(F)F)c4)n3)cc2F)c1` [Compound J122, (Z)-1-(2-Fluoro-4-(1-(3-(trifluoromethyl)phenyl)-1H-1,2,4-triazol-3-yl)phenyl)-3-(3-(5-methyl-2-(2,2,2-trifluoroethoxy)phenyl)-4-oxothiazolidin-2-ylidene)urea], the pest or weed control at 50 µg/cm2 in assay [1] (setting [4]) and in assay [2] (setting [5]) was 50 to 100% each time. Further, in assay [3] (setting [6]), the pest or weed control at 200 µg/mL lay within 0 to 80%.
`CCCc1ccc(N(C)C)cc1N1C(=O)CS/C1=N\C(=O)Nc1ccc(-c2ncn(-c3ccc(OC(F)(F)F)cc3)n2)cc1F` [Compound J196, (Z)-1-(3-(5-(Dimethylamino)-2-propylphenyl)-4-oxothiazolidin-2-ylidene)-3-(2-fluoro-4-(1-(4-(trifluoromethoxy)phenyl)-1H-1,2,4-triazol-3-yl)phenyl)urea]: the pest or weed control at 50 µg/cm2 in assay [1] (setting [4]) and in assay [2] (setting [5]) was 50 to 100% in each case. Besides, the pest or weed control at 200 µg/mL in assay [3] (setting [6]) was 0 to 80%.
For `COc1ccc(C(C)C)c(N2C(=O)CS/C2=N\C(=O)Nc2ccc(-c3ncn(-c4ccc(OC(F)(F)F)cc4)n3)cc2F)c1` [Compound J312], the pest or weed control at 50 µg/cm2 in assay [1] (setting [4]) and in assay [2] (setting [5]) was 50 to 100% in each case. Further, the pest or weed control at 200 µg/mL in assay [3] (setting [6]) is 0 to 80%.
With `CCc1cc(-c2ncn(-c3ccc(OC(F)(F)F)cc3)n2)ccc1NC(=O)/N=C1\SCC(=O)N1c1cc(C)ccc1C(C)C` [Compound J70, (Z)-1-(2-Ethyl-4-(1-(4-(trifluoromethoxy)phenyl)-1H-1,2,4-triazol-3-yl)phenyl)-3-(3-(2-isopropyl-5-methylphenyl)-4-oxothiazolidin-2-ylidene)urea], the pest or weed control at 50 µg/cm2 in assay [1] (setting [4]) and in assay [2] (setting [5]) was 50 to 100% each time. In addition, the pest or weed control at 200 µg/mL in assay [3] (setting [6]) was in the range of 0 to 80%.
As to `Cc1ccc(C(C)C)c(N2C(=O)CS/C2=N\C(=O)Nc2ccc(-c3ncn(-c4ccc(OC(F)(F)F)cc4)n3)cc2C)c1` [Compound J1, (Z)-1-(3-(2-isopropyl-5-methylphenyl)-4-oxothiazolidin-2-ylidene)-3-(2-methyl-4-(1-(4-(trifluoromethoxy)phenyl)-1H-1,2,4-triazol-3-yl)phenyl)urea], the pest or weed control at 50 µg/cm2 in assay [1] (setting [4]) and in assay [2] (setting [5]) was 50 to 100% in each case. For the same molecule, the pest or weed control at 200 µg/mL in assay [3] (setting [6]) is 0 to 80%.
